Assay results as given in US10533010B2, “Substituted indole Mcl-1 inhibitors” (Vanderbilt University, priority 2014, dated 2020).

Each compound was assayed against recombinant Mcl-1 (residues 172-327) (Homo sapiens (Human), UniProt Q07820) (assay: Fluorescence polarization anisotropy competition assay (FITC-Bak or FITC-Bim BH3 peptide) with Mcl-1). Conditions: Table 2; Ki bins given in nM; FITC-Bak or FITC-Bim peptide competition; Ki converted from IC50; read-out: Ki for Inhibition of Mcl-1.
Format: binding

Sequence of recombinant Mcl-1 (residues 172-327) (Q07820 172-327): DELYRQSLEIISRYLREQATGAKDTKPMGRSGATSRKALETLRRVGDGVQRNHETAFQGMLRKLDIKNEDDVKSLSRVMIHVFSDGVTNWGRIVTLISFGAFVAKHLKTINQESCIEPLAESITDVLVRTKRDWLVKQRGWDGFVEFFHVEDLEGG

Structure (SMILES)	Ki [nM]
Cc1cc(OCCCc2c(C(=O)NCC(=O)NCC(=O)O)[nH]c3c(-c4c(C)nn(C)c4C)cccc23)cc(C)c1Cl [I-290, (3-(3-(4-chloro-3,5-dimethylphenoxy)propyl)-7-(1,3,5-trimethyl-1H-pyrazol-4-yl)-1H-indole-2-carbonyl)glycylglycine]	< 50
Cc1cc(OCCCc2c3n(c4c(-c5c(C)nn(C)c5C)c(Cl)ccc24)CCCN(c2ccc(C(=O)NS(=O)(=O)C4CC4)cc2)C3=O)cc(C)c1Cl [I-361, 4-(8-chloro-11-(3-(4-chloro-3,5-dimethylphenoxy)propyl)-1-oxo-7-(1,3,5-trimethyl-1H-pyrazol-4-yl)-4,5-dihydro-H-[1,4]diazepino[1,2-a]indol-2(3H)-yl)-N-(cyclopropylsulfonyl)benzamide]	< 50
Cc1cc(OCCCc2c3n(c4c(-c5c(C)nn(C)c5C)c(Cl)ccc24)CCCN(c2ccc(C#N)cc2)C3=O)cc(C)c1Cl [I-356, 4-(8-chloro-11-(3-(4-chloro-3,5-dimethylphenoxy)propyl)-1-oxo-7-(1,3,5-trimethyl-1H-pyrazol-4-yl)-4,5-dihydro-1H-[1,4]diazepino[1,2-a]indol-2(3H)-yl)benzonitrile]	51 to 100
Cc1cc(OCCCc2c(C(=O)NCCC(=O)NS(=O)(=O)c3ccccc3C#N)[nH]c3ccccc23)cc(C)c1Cl [I-18, 3-(3-(4-chloro-3,5-dimethylphenoxy)propyl)-N-(3-((2-cyanophenyl)sulfonamido)-3-oxopropyl)-1H-indole-2-carboxamide]	301 to 500
Cc1cc(OCCCc2c3n(c4c(-c5c(C)nn(C)c5C)c(Cl)ccc24)C(C)[C@@H](C)NC3=O)cc(C)c1Cl (stereo partly drawn) [I-119, (3R)-7-chloro-10-(3-(4-chloro-3,5-dimethylphenoxy)propyl)-3,4-dimethyl-6-(1,3,5-trimethyl-1H-pyrazol-4-yl)-3,4-dihydropyrazino[1,2-a]indol-1(2H)-one]	101 to 299
Cc1cc(OCCCc2c(C(=O)NCc3ccc(C(=O)NCc4ccccc4C(F)(F)F)o3)[nH]c3ccccc23)cc(C)c1Cl [I-58, 3-(3-(4-chloro-3,5-dimethylphenoxy)propyl)-N-((5-((2-(trifluoromethyl)benzyl)carbamoyl)furan-2-yl)methyl)-1H-indole-2-carboxamide]	101 to 299
Cc1cc(OCCCc2c3n(c4c(-c5c(C)nn(C)c5C)c(Cl)ccc24)CC(C)CN(Cc2cccc(C(=O)O)c2)C3=O)cc(C)c1Cl (stereo not shown) [I-135, 3-((8-chloro-11-(3-(4-chloro-3,5-dimethylphenoxy)propyl)-4-methyl-1-oxo-7-(1,3,5-trimethyl-1H-pyrazol-4-yl)-4,5-dihydro-1H-[1,4]diazepino[1,2-a]indol-2(3H)-yl)methyl)benzoic acid]	< 50
Cc1cc(OCCCc2c3n(c4c(-c5c(C)nn(C)c5C)c(Cl)ccc24)[C@@H](C)CN(c2cc(C(=O)O)c4ccn(C)c4c2)C3=O)cc(C)c1Cl [I-169, (S)-6-(7-chloro-10-(3-(4-chloro-3,5-dimethylphenoxy)propyl)-4-methyl-1-oxo-6-(1,3,5-trimethyl-1H-pyrazol-4-yl)-3,4-dihydropyrazino[1,2-a]indol-2(1H)-yl)-1-methyl-1H-indole-4-carboxylic acid]	< 50

Same assay, conditions: Table 2; Ki bins given in μM; FITC-Bak or FITC-Bim peptide competition; Ki converted from IC50; read-out: Ki for Inhibition of Mcl-1

Structure (SMILES)	Ki [nM]
Cc1cc(OCCCc2c(C(=O)NCc3ccc(N4CCc5ccccc5C4)nc3)[nH]c3c(-c4c(C)nn(C)c4C)cccc23)cc(C)c1Cl [I-261, 3-(3-(4-chloro-3,5-dimethylphenoxy)propyl)-N-((6-(3,4-dihydroisoquinolin-2 (1H)-yl)pyridin-3-yl)methyl)-7-(1,3,5-trimethyl-1H-pyrazol-4-yl)-1H-indole-2-carboxamide]	1000 to 9990
Cc1cc(OCCCc2c(C(=O)NCc3ccccc3)[nH]c3ccccc23)cc(C)c1Cl [I-41, N-benzyl-3-(3-(4-chloro-3,5-dimethylphenoxy)propyl)-1H-indole-2-carboxamide]	10000 to 50000
